These are literature values, as cited in patent US11123318B2 (APR APPLIED PHARMA RESEARCH S.A., priority 2017, dated 2021).

Experiment in series [1]: not given
This is another data set of the same source.

As for `O=C(O)Cc1ccccc1Nc1c(Cl)cccc1Cl` [Diclofenac, 2-(2-[2,6-diclorofenilammino]phenyl) ethanoic acid], under “after oral administration”, the “absorption through the gastrointestinal tract” value is “completely absorbed” and the “time to peak plasma level” value is at most 1 h. Also, where the note is “in vivo”, the “administered dose eliminated as the metabolite by the renal route” value was “About 60%”; the “administered dose excreted in the bile and in the faeces” value was “About 30%”; the “excreted as unchanged substance by the renal route” value is “less than 1%”. The solubility in water result in series [1] was “low solubility”.
